Test results published in PubChem BioAssay (NCI).
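Growth conditions: 96-well plates. Treatment: test compound, 48 hours, 5 concentrations. Analysis: linear interpolation between bracketing concentrations; unreached endpoints set to highest concentration. GI50 is the concentration that inhibits growth by half. Definition used: TGI = concentration required for complete inhibition of growth.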

Key:
Assay in all cases: NCI-60 cell line screen, 48 h
786-0 renal = tested on: 786-0 renal
A498 renal = tested on: A498 renal
A549 NSCLC = tested on: A549 NSCLC
ACHN renal = tested on: ACHN renal
BT-549 breast = tested on: BT-549 breast
CAKI-1 renal = tested on: CAKI-1 renal
CCRF-CEM leukemia = tested on: CCRF-CEM leukemia
COLO 205 colon = tested on: COLO 205 colon
DU-145 prostate = tested on: DU-145 prostate
EKVX NSCLC = tested on: EKVX NSCLC
HCC-2998 colon = tested on: HCC-2998 colon
HCT-116 colon = tested on: HCT-116 colon
HCT-15 colon = tested on: HCT-15 colon
HL-60(TB) leukemia = tested on: HL-60(TB) leukemia
HOP-62 NSCLC = tested on: HOP-62 NSCLC
HOP-92 NSCLC = tested on: HOP-92 NSCLC
HS 578T breast = tested on: HS 578T breast
HT29 colon = tested on: HT29 colon
IGROV1 ovarian = tested on: IGROV1 ovarian
K-562 leukemia = tested on: K-562 leukemia
KM12 colon = tested on: KM12 colon
LOX IMVI melanoma = tested on: LOX IMVI melanoma
M14 melanoma = tested on: M14 melanoma
MALME-3M melanoma = tested on: MALME-3M melanoma
MCF7 breast = tested on: MCF7 breast
MDA-MB-231 breast = tested on: MDA-MB-231 breast
MDA-MB-435 = tested on: MDA-MB-435
MDA-MB-468 breast = tested on: MDA-MB-468 breast
MOLT-4 leukemia = tested on: MOLT-4 leukemia
NCI-H226 lung = tested on: NCI-H226 lung
NCI-H23 lung = tested on: NCI-H23 lung
NCI-H460 lung = tested on: NCI-H460 lung
NCI-H522 lung = tested on: NCI-H522 lung
NCI/ADR-RES ovarian = tested on: NCI/ADR-RES ovarian
OVCAR-3 ovarian = tested on: OVCAR-3 ovarian
OVCAR-4 ovarian = tested on: OVCAR-4 ovarian
OVCAR-5 ovarian = tested on: OVCAR-5 ovarian
OVCAR-8 ovarian = tested on: OVCAR-8 ovarian
PC-3 prostate = tested on: PC-3 prostate
RPMI-8226 leukemia = tested on: RPMI-8226 leukemia
RXF 393 renal = tested on: RXF 393 renal
SF-268 CNS = tested on: SF-268 CNS
SF-295 CNS = tested on: SF-295 CNS
SF-539 CNS = tested on: SF-539 CNS
SK-MEL-2 melanoma = tested on: SK-MEL-2 melanoma
SK-MEL-28 melanoma = tested on: SK-MEL-28 melanoma
SK-MEL-5 melanoma = tested on: SK-MEL-5 melanoma
SK-OV-3 ovarian = tested on: SK-OV-3 ovarian
SN12C renal = tested on: SN12C renal
SNB-19 CNS = tested on: SNB-19 CNS
SNB-75 CNS = tested on: SNB-75 CNS
SR leukemia = tested on: SR leukemia
SW-620 colon = tested on: SW-620 colon
T-47D breast = tested on: T-47D breast
TK-10 renal = tested on: TK-10 renal
U251 CNS = tested on: U251 CNS
UACC-257 melanoma = tested on: UACC-257 melanoma
UACC-62 melanoma = tested on: UACC-62 melanoma
UO-31 renal = tested on: UO-31 renal

O=C1Nc2cc(-c3ccc(NS(=O)(=O)c4ccc(C(F)(F)F)cc4)cc3)ccc2/C1=C/c1ccc[nH]1 gave a GI50 (786-0 renal) of 2.55 µM, a TGI (786-0 renal) of 6.54 µM and a GI50 (A498 renal) of 1.99 µM. For the same compound, the TGI (A498 renal) was 7.78 µM, the GI50 (A549 NSCLC) was 1.31 µM and the TGI (A549 NSCLC) was 2.92 µM. The GI50 (ACHN renal) was 2.19 µM, the TGI (ACHN renal) was 5.31 µM and the GI50 (BT-549 breast) was 1.96 µM. It also gave a TGI (BT-549 breast) of 5.54 µM, a GI50 (CAKI-1 renal) of 2.57 µM and a TGI (CAKI-1 renal) of 11.1 µM. For the same compound, the GI50 (CCRF-CEM leukemia) was 2.27 µM, the TGI (CCRF-CEM leukemia) was 6.82 µM and the GI50 (COLO 205 colon) was 2.42 µM. The TGI (COLO 205 colon) was 8.25 µM, the GI50 (DU-145 prostate) was 1.87 µM and the TGI (DU-145 prostate) was 4 µM. For the same compound, the GI50 (EKVX NSCLC) was 0.123 µM, the TGI (EKVX NSCLC) was 4.13 µM and the GI50 (HCC-2998 colon) was 1.91 µM. For the same compound, the TGI (HCC-2998 colon) was 4.92 µM, the GI50 (HCT-116 colon) was 1.82 µM and the TGI (HCT-116 colon) was 3.46 µM. The GI50 (HCT-15 colon) was 1.42 µM, the TGI (HCT-15 colon) was 3.26 µM and the GI50 (HL-60(TB) leukemia) was 2.9 µM. The TGI (HL-60(TB) leukemia) was 10.7 µM, the GI50 (HOP-62 NSCLC) was 1.66 µM and the TGI (HOP-62 NSCLC) was 4.7 µM. For the same compound, the GI50 (HOP-92 NSCLC) was 1.1 µM, the TGI (HOP-92 NSCLC) was 3.79 µM and the GI50 (HS 578T breast) was 1.96 µM. It also gave a TGI (HS 578T breast) of 10.3 µM, a GI50 (HT29 colon) of 2.21 µM and a TGI (HT29 colon) of 5.14 µM. It also gave a GI50 (IGROV1 ovarian) of 3.31 µM, a TGI (IGROV1 ovarian) of 15 µM and a GI50 (K-562 leukemia) of 2.48 µM. It also gave a TGI (K-562 leukemia) of 11 µM, a GI50 (KM12 colon) of 1.94 µM and a TGI (KM12 colon) of 7.83 µM. It also gave a GI50 (LOX IMVI melanoma) of 1.63 µM, a TGI (LOX IMVI melanoma) of 2.98 µM and a GI50 (M14 melanoma) of 3.11 µM. For the same compound, the TGI (M14 melanoma) was 13 µM, the GI50 (MALME-3M melanoma) was 3.05 µM and the TGI (MALME-3M melanoma) was 13.6 µM. For the same compound, the GI50 (MCF7 breast) was 0.0818 µM, the TGI (MCF7 breast) was 1.47 µM and the GI50 (MDA-MB-231 breast) was 2.28 µM. It also gave a TGI (MDA-MB-231 breast) of 8.29 µM, a GI50 (MDA-MB-435) of 1.86 µM and a TGI (MDA-MB-435) of 3.95 µM. The GI50 (MDA-MB-468 breast) was 0.0311 µM, the TGI (MDA-MB-468 breast) was 0.309 µM and the GI50 (MOLT-4 leukemia) was 2.49 µM. The TGI (MOLT-4 leukemia) was 10.8 µM, the GI50 (NCI-H226 lung) was 1.1 µM and the TGI (NCI-H226 lung) was 6.79 µM. For the same compound, the GI50 (NCI-H23 lung) was 1.07 µM, the TGI (NCI-H23 lung) was 2.83 µM and the GI50 (NCI-H460 lung) was 0.437 µM. For the same compound, the TGI (NCI-H460 lung) was 1.77 µM, the GI50 (NCI-H522 lung) was 1.44 µM and the TGI (NCI-H522 lung) was 3.32 µM. For the same compound, the GI50 (NCI/ADR-RES ovarian) was 2.59 µM, the TGI (NCI/ADR-RES ovarian) was 8.6 µM and the GI50 (OVCAR-3 ovarian) was 1.43 µM. It also gave a TGI (OVCAR-3 ovarian) of 2.92 µM, a GI50 (OVCAR-4 ovarian) of 1.1 µM and a TGI (OVCAR-4 ovarian) of 7.33 µM. For the same compound, the GI50 (OVCAR-5 ovarian) was 1.8 µM, the TGI (OVCAR-5 ovarian) was 7.06 µM and the GI50 (OVCAR-8 ovarian) was 1.91 µM. It also gave a TGI (OVCAR-8 ovarian) of 4.07 µM, a GI50 (PC-3 prostate) of 1.57 µM and a TGI (PC-3 prostate) of 4.83 µM. The GI50 (RPMI-8226 leukemia) was 1.33 µM, the TGI (RPMI-8226 leukemia) was 4.25 µM and the GI50 (RXF 393 renal) was 1.96 µM. It also gave a TGI (RXF 393 renal) of 4.37 µM, a GI50 (SF-268 CNS) of 1.72 µM and a TGI (SF-268 CNS) of 3.86 µM. It also gave a GI50 (SF-295 CNS) of 2.04 µM, a TGI (SF-295 CNS) of 4.67 µM and a GI50 (SF-539 CNS) of 1.43 µM. For the same compound, the TGI (SF-539 CNS) was 3.26 µM, the GI50 (SK-MEL-2 melanoma) was 3.14 µM and the TGI (SK-MEL-2 melanoma) was 12.2 µM. The GI50 (SK-MEL-28 melanoma) was 2.26 µM, the TGI (SK-MEL-28 melanoma) was 5.68 µM and the GI50 (SK-MEL-5 melanoma) was 4.13 µM. The TGI (SK-MEL-5 melanoma) was 15.6 µM, the GI50 (SK-OV-3 ovarian) was 2.2 µM and the TGI (SK-OV-3 ovarian) was 11.6 µM. The GI50 (SN12C renal) was 1.59 µM, the TGI (SN12C renal) was 3.17 µM and the GI50 (SNB-19 CNS) was 2.53 µM. The TGI (SNB-19 CNS) was 11.3 µM, the GI50 (SNB-75 CNS) was 2.29 µM and the TGI (SNB-75 CNS) was 13.3 µM. The GI50 (SR leukemia) was 1.97 µM, the TGI (SR leukemia) was 7 µM and the GI50 (SW-620 colon) was 1.87 µM. For the same compound, the TGI (SW-620 colon) was 3.68 µM, the GI50 (T-47D breast) was 0.23 µM and the TGI (T-47D breast) was 3.86 µM. The GI50 (TK-10 renal) was 1.27 µM, the TGI (TK-10 renal) was 6.71 µM and the GI50 (U251 CNS) was 1.61 µM. For the same compound, the TGI (U251 CNS) was 3.12 µM, the GI50 (UACC-257 melanoma) was 2.39 µM and the TGI (UACC-257 melanoma) was 7.33 µM. It also gave a GI50 (UACC-62 melanoma) of 2.13 µM, a TGI (UACC-62 melanoma) of 9.73 µM and a GI50 (UO-31 renal) of 1.51 µM. For the same compound, the TGI (UO-31 renal) was 10.3 µM.
